The text below walks through data of ChEMBL document CHEMBL1152578, “Inhibition of ribonuclease A by nucleoside-dibasic acid conjugates” (Bioorg Med Chem, 2009).

pKi: −log10 of the molar value. Activity calls are given as the source filed them. No cut-off for these calls is given here.

One assay addresses T1, Ribonuclease pancreatic (Homo sapiens, UniProt P07998).
T1 sequence (P07998 whole entry): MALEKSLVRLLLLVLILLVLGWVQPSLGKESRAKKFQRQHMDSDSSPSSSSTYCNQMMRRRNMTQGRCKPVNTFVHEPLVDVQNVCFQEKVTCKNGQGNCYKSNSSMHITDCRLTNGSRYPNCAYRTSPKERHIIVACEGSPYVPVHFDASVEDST
The experiment in a line: Inhibition of RNase A using dixon plot by spectrophotometric method.

The target of assay [1] is T2, Ribonuclease pancreatic (Homo sapiens) (UniProt P07998).
T2 sequence (whole entry): T1 sequence (P07998 whole entry)
The experiment in a line: Inhibition of RNase A at 1.5 mM by precipitation assay.

Assay [2] concerns the target T2, Ribonuclease pancreatic (Homo sapiens). Briefly: Inhibition of RNase A assessed as degradation of tRNA by agarose gel assay.

Broadly, the pKi is the Ki on a negative log10 scale, so that one unit is a factor of ten. In turn, `Cc1cn([C@H]2C[C@H](NC(=O)CC(=O)O)[C@@H](CO)O2)c(=O)[nH]c1=O` gave a pKi on Ribonuclease pancreatic of 3.42. For the compound `Cc1cn([C@H]2C[C@H](NC(=O)C(=O)O)[C@@H](CO)O2)c(=O)[nH]c1=O`, the pKi at Ribonuclease pancreatic is 3.88. In assay [1], the inhibition result is “Active”. For the same compound, the outcome in assay [2] was Active. `Cc1cn([C@H]2C[C@H](NC(=O)CCC(=O)O)[C@@H](CO)O2)c(=O)[nH]c1=O` had a pKi on Ribonuclease pancreatic of 3.04.
